Reference: US20210212957A1, “MEDICAL DEVICE FOR PREVENTING AND/OR TREATING INFECTIONS OF SKIN LESIONS” (FASTMEDITALIA S.R.L., priority 2020, published 2021)

Test system: Staphylococcus aureus (gram-positive bacterium; ATCC 6538)
Assay: bacterial reduction in a bacterial suspension in dynamic contact with the medical device
Format: cell-based
Conditions: temperature environment; dynamic contact time 1 hour; 50 grams of bacterial suspension at 10^5 cells, 1 gram of medical device where present
Procedure: In Table 1, 50 grams of bacterial suspension at a concentration of 10^5 cells was subjected to dynamic contact with 1 gram of the medical device in the presence of cocamido-propyl-betaine (an amphoteric surfactant).
The same experiment was then carried out using no surfactant at all (Table 2) or non-ionic or anionic surfactants (Tables 3 and 4).

Row | Molecule | Bacterial reduction % [%]
1 | cocamidopropyl betaine [2 g/l of cocamidopropyl betaine] | 12
2 | CCCCCCCCCCCCOS(=O)(=O)[O-].[Na+] [Sodium dodecilsulphate] | 16
3 | Polyoxyethylenesorbitan monolaurate | 5
